Columns and labels:
[1] = tested on: mice subjected to controlled cortical impact injury; test: Residual cerebral tissue ratio, cresyl violet staining; assay type: in vivo; conditions: icv LY294002 30 min before CCI, then SALD 20 mg/kg ip (S20LY group); day 28; P<0.05 vs S20S
Procedure: All animal procedures were approved by the Animal Research Committee at Cheng Hsin General Hospital (Animal permit number CHIACUC 101–08), and all procedures complied with the Guide for the Care and Use of Laboratory Animals published by the US National Institutes of Health (NIH Publication No. 85–23, revised 1996). Animals were housed under a 12-h light/dark cycle and at constant temperature (21–25°C) and humidity (45–50%). They were allowed free access to pellet chow and water. TBI in mice was induced by a CCI injury model as previously described. Briefly, 8-week-old male C57BL/6 mice (weighing 22–25 g) were anesthetized through the use of intraperitoneal injection of sodium pentobarbital (65 mg/kg; Rhone Merieux, Harlow, UK) and placed in a stereotaxic frame. A 5 mm craniotomy was performed over the right parietal cortex, centered on the coronal suture and 0.1 mm lateral to the sagittal suture, and injury to dura was avoided. Injury was induced using a pneumatic piston with a rounded metal tip (2.5 mm diameter) that was angled 22.5° to the vertical so that the tip was perpendicular with the brain surface at the center of the craniotomy. The impact, with a velocity of […] and a deformation depth of 2 mm below the dura, was applied. The bone flap was immediately replaced and sealed, and the scalp was sutured. Body temperature was monitored throughout the surgery by a rectal probe; temperature was maintained at 37.0±0.5°C using a heated pad. Mice were placed in a heated cage to maintain body temperature, while recovering from anesthesia. Sham-operated mice underwent the same procedure as injured mice, but without CCI.
(§1) Mice were anesthetized and positioned in a stereotaxic frame. LY294002 (200 nM in 0.5 µL of saline) or equal amount of physiological saline was intracerebroventricularly (icv) injected at 30 min before CCI as previously described. A 1 mm cranial burr hole was drilled into the skull. A 30-gauge needle on a Hamilton syringe was implanted into the lateral ventricle using stereotactic coordinates: 1.5 mm posterior to bregma and 1.0 mm right lateral to the midline, 2 mm in depth. LY294002 or saline was infused into the brain at a rate of 0.05 µL/min over 10 min with an infusion pump (KDS 310, KD Scientific Inc., Holliston, MA, USA), and the needle was left in place for an additional 20 min to prevent reflux. After the needle was removed, CCI procedure was conducted immediately. Sham-operated mice were infused icv with saline, but were not subjected to CCI.
Three sets of experiments were performed. […] To determine the optimal dose of salidroside, a pilot study was performed using 2 different doses (20 and 50 mg/kg) administered 10 min after injury, and neurological deficits and tissue damage were evaluated as the main outcomes. […]

p-Akt Thr308 = test: Western blot, injured cortex; assay type: in vivo, mice; conditions: icv LY294002 30 min before CCI + SALD 20 mg/kg ip (S20LY); day 1; P<0.05
Procedure: as §1
(§2) Three sets of experiments were performed. The first set was to investigate the protective effects of salidroside. All animals were randomized into 1 of 3 groups (sham injury, CCI + vehicle, CCI + SALD 20). Surgery/injury, behavioral testing, and tissue analyses were performed by different individuals. Behavioral testing and tissue analyses were performed by individuals blinded to the treatment group. Salidroside (Cayman Chemical, Ann Arbor, MI, USA) dissolved in normal saline (0.25 mL) or a corresponding volume of vehicle (saline) was administered intraperitoneally 10 min following injury. Testing after injury was completed as follows: 1) behavioral testing at days 1, 4, 7, 14, 21, and 28 (n = 8–10 mice/group); 2) cresyl violet staining at day 28 (n = 9 mice/group); 3) histology, determination of brain water content, and western blot analysis at day 1 or 3 (n = 5–6 mice/group). To determine the optimal dose of salidroside, a pilot study was performed using 2 different doses (20 and 50 mg/kg) administered 10 min after injury, and neurological deficits and tissue damage were evaluated as the main outcomes. […] The second set of experiment was to assess the effect of the inhibition of PI3K/Akt with the specific PI3K inhibitor, LY294002 (Cell Signaling Technology, Danvers, MA, USA), on salidroside effects. Animals were randomized into 4 groups. Mice received either: 1) icv pretreatment of LY294002 followed by SALD 20 after CCI (S20Y group); or 2) icv pretreatment of saline (vehicle control) followed by SALD 20 after CCI (S20V group). 3) Mice were infused icv with saline and were subjected to sham injury. 4) Mice were infused icv with LY294002 and were subjected to sham injury. Testing after injury was completed as follows: 1) cresyl violet staining at day 28 (n = 6 mice/group); 2) western blot analysis at day 1 (n = 6 mice/group). The third set of experiment was performed to examine the neuroprotective time window afforded by salidroside. Mice received intraperitoneal SALD 20 or vehicle (saline) at 3 or 6 h following CCI and were sacrificed 1 day later for FJB staining and western blot analysis (n = 6 mice/group).
(§3) Brains of injured or sham animals were collected 1 day and 3 days post CCI or sham surgery, and a 4 mm coronal section from the injured area over the parietal cortex and ipsilateral hippocampus were collected. The protein samples were obtained from tissue homogenates in 300 µL of ice-cold reagent (T-PER reagent; Pierce Biotechnology, Rockford, IL, USA) with a complete mini protease inhibitor cocktail (Roche Molecular Biochemicals) centrifuged at 14000g for 30 min. Protein concentration was determined by Bradford reagent spectrophotometrically at A595. Equal amounts of protein samples were denatured in gel-loading buffer at 100°C for 5 min, and then loaded onto sodium dodecyl sulfate-polyacrylamide gels to be separated. Separated proteins were transferred to Immobilon-P membranes (Millipore, Billerica, MA, USA), blocked with the use of 5% milk in PBST and probed with primary antibodies. […]

p-FOXO1 = test: Western blot, injured cortex; assay type: in vivo, mice
Procedure: as §1, §2, §3

p-Bad = test: Western blot, injured cortex; assay type: in vivo, mice
Procedure: as §1, §2, §3

p-Akt Ser473 = test: Western blot, injured cortex; assay type: in vivo, mice
Procedure: as §1, §2, §3

[2] = icv LY294002 30 min before CCI + SALD 20 mg/kg ip, day 1, P>0.05

## O=c1cc(N2CCOCC2)oc2c(-c3ccccc3)cccc12 [LY294002, reference compound]
[1]
  residual cerebral tissue ratio: 71.0±6.3%
p-Akt Thr308
  p-Akt Thr308 level, % of the S20V level: 58.1%
p-FOXO1; icv LY294002 30 min before CCI + SALD 20 mg/kg ip (S20LY), day 1, P<0.05
  p-FOXO1 level, % of the S20V level: 41.6%
p-FOXO1; icv LY294002, sham injury
  FOXO1 phosphorylation in sham-operated mice: did not affect
p-Bad; [2]
  p-Bad level, S20LY versus S20V group: similar
p-Bad; icv LY294002, sham injury
  Bad phosphorylation in sham-operated mice: did not affect
p-Akt Ser473; [2]
  p-Akt Ser473 level, S20LY versus S20V group: similar
p-Akt Ser473; icv LY294002, sham injury
  Akt phosphorylation (Ser473 and Thr308) in sham-operated mice: did not affect

Source: article PMC3454376, “Salidroside Improves Behavioral and Histological Outcomes and Reduces Apoptosis via PI3K/Akt Signaling after Experimental Traumatic Brain Injury” (PLoS ONE, 2012)
